Laboratory results from US6395293B2, “Biodegradable implant precursor” (Atrix Laboratories, priority 1989, dated 2002).

How the values were obtained:
[1] = Cumulative release of flurbiprofen from implant matrix at different polymer concentrations; assay type: physicochemical; details: about 5% flurbiprofen; for cumulative release: about 55% poly(DL-lactide); for cumulative percent release: polymer concentration about 45%
Text: The release rate of the bioactive agent from the implant matrix may also be adjusted by varying the concentration of the polymer in the polymer solution. For example, the more dilute the polymer concentration, the more readily the bioactive agent will be released from the implant matrix. For example, in a system containing about 5% flurbiprofen and a polymer concentration of about 55% poly(DL-lactide), a cumulative release of about 11.4% at day 1 and about 23% at day 7 may be provided. With a polymer concentration of about 45%, the cumulative percent release is about 23% at day 1 and about 40% at day 7.

[2] = Ex vivo release of bioactive agent from poly(DL-lactide) implant matrix, with and without release rate modification agent; assay type: physicochemical
Text: The use of a release rate modification agent may either decrease or increase the release of the bioactive agent in the range of multiple orders of magnitude (e.g., 1 to 10 to 100), preferably up to a ten-fold change, as compared to the release of a bioactive agent from a solid matrix without the release rate modification agent. For example, naltrexone and doxycycline are substantially completely released from a polymer matrix comprised of poly(DL-lactide) within about 2-3 days ex vivo. With the addition of a release rate modification agent such as ethyl heptanoate which is hydrophobic to the polymer solution, and formation of the implant matrix through interaction of the polymer solution and an aqueous medium, the release rate of naltrexone or doxycycline can be slowed to produce substantially complete release of the drug within about seven days. With the inclusion of a greater amount of a release rate modification agent into the polymer solution, the time period of the release can be increased to about fourteen days. Other release rate modification agents which are hydrophilic such as polyethylene glycol may increase the release of the bioactive agent. […]

cumulative release ([1]; day 1) | cumulative release ([1]; day 7) | cumulative percent release ([1]; day 1) | cumulative percent release ([1]; day 7) | Compound | time period of the release ([2]; poly(DL-lactide) matrix with a greater amount of release rate modification agent) | time to substantially complete release from polymer matrix ([2]; poly(DL-lactide) matrix with ethyl heptanoate added as release rate modification agent)
about 11.4% | about 23% | about 23% | about 40% | CC(C(=O)O)c1ccc(-c2ccccc2)c(F)c1 (stereo not drawn) [flurbiprofen] |  | 
 |  |  |  | O=C1CC[C@@]2(O)[C@H]3Cc4ccc(O)c5c4[C@@]2(CCN3CC2CC2)[C@H]1O5 [naltrexone] | about fourteen | about seven
